≈ marks a conversion by molar mass, not a printed value.
Experiments:
Assay type in all cases: functional
Pseudomonas aeruginosa [1] = assay: Antimicrobial activity against Pseudomonas aeruginosa isolate 243-31C expressing beta-lactamase VIM-18 isolated from sputum of patient by broth microdilution method
Escherichia coli [2] = assay: Antimicrobial activity against Escherichia coli harboring plasmid pPCRScript by Etest
Escherichia coli [3] = assay: Antimicrobial activity against Escherichia coli harboring beta-lactamase VIM-2 by Etest
Escherichia coli [4] = assay: Antimicrobial activity against Escherichia coli harboring beta-lactamase VIM-18 by Etest
Escherichia coli [5] = assay: Ratio of MIC for Escherichia coli harboring beta-lactamase VIM-2 to MIC for Escherichia coli harboring beta-lactamase VIM-18
Pseudomonas aeruginosa [6] = assay: Antimicrobial activity against Pseudomonas aeruginosa isolate 243-31C expressing beta-lactamase VIM-18 isolated from sputum of patient by broth microdilution method in presence of beta-lactamase inhibitor Tazobactam

Molecule: CO/N=C(\C(=O)N[C@@H]1C(=O)N2C(C(=O)[O-])=C(C[N+]3(C)CCCC3)CS[C@H]12)c1csc(N)n1
- MIC (Pseudomonas aeruginosa [1]): > 16 µg/mL
- MIC (Escherichia coli [2]): 0.032 µg/mL (≈ 0.0666 µM)
- MIC (Escherichia coli [3]): 0.5 µg/mL (≈ 1.04 µM)

Molecule: CO[C@@]1(NC(=O)Cc2cccs2)C(=O)N2C(C(=O)O)=C(COC(N)=O)CS[C@@H]21 [CEFOXITIN]
- MIC (Pseudomonas aeruginosa [1]): > 16 µg/mL
- MIC (Escherichia coli [4]): 8 µg/mL (≈ 18.7 µM)
- Ratio (Escherichia coli [5]): >6
- MIC (Escherichia coli [2]): 4 µg/mL (≈ 9.36 µM)
- MIC (Escherichia coli [3]): > 256 µg/mL

Molecule: CO/N=C(\C(=O)N[C@@H]1C(=O)N2C(C(=O)O)=C(CSc3nc(=O)c(O)nn3C)CS[C@H]12)c1csc(N)n1 [CEFTRIAXONE]
- MIC (Pseudomonas aeruginosa [1]): > 32 µg/mL

Molecule: C[C@@H](O)[C@H]1C(=O)N2C(C(=O)O)=C(S[C@@H]3CN[C@H](CNS(N)(=O)=O)C3)[C@H](C)[C@H]12 [DORIPENEM]
- MIC (Pseudomonas aeruginosa [1]): 4 µg/mL (≈ 9.51 µM)

Molecule: C[C@@H](O)[C@H]1C(=O)N2C(C(=O)O)=C(S[C@@H]3CN[C@H](C(=O)Nc4cccc(C(=O)O)c4)C3)[C@H](C)[C@H]12
- MIC (Pseudomonas aeruginosa [1]): > 8 µg/mL
- MIC (Escherichia coli [4]): 0.016 µg/mL (≈ 0.0336 µM)
- Ratio (Escherichia coli [5]): 9
- MIC (Escherichia coli [2]): 0.006 µg/mL (≈ 0.0126 µM)
- MIC (Escherichia coli [3]): 0.25 µg/mL (≈ 0.526 µM)

Molecule: GENTAMICIN
- MIC (Pseudomonas aeruginosa [1]): 8 µg/mL

Molecule: O=C(O)c1cn(C2CC2)c2cc(N3CCNCC3)c(F)cc2c1=O [CIPROFLOXACIN]
- MIC (Pseudomonas aeruginosa [1]): 0.06 µg/mL (≈ 0.181 µM)

Molecule: NC[C@H]1O[C@H](O[C@H]2[C@H](O)[C@@H](O[C@H]3O[C@H](CO)[C@@H](O)[C@H](N)[C@H]3O)[C@H](N)C[C@@H]2N)[C@H](N)C[C@@H]1O [TOBRAMYCIN]
- MIC (Pseudomonas aeruginosa [1]): > 16 µg/mL

Molecule: C[C@@H](O)[C@H]1C(=O)N2C(C(=O)O)=C(SCCNC=N)C[C@H]12 [IMIPENEM ANHYDROUS]
- MIC (Pseudomonas aeruginosa [1]): 8 µg/mL (≈ 26.7 µM)
- MIC (Escherichia coli [3]): 0.5 µg/mL (≈ 1.67 µM)

Molecule: CN(C)[C@@H]1C(O)=C(C(N)=O)C(=O)[C@@]2(O)C(O)=C3C(=O)c4c(O)cccc4[C@@](C)(O)[C@H]3C[C@@H]12 [TETRACYCLINE]
- MIC (Pseudomonas aeruginosa [1]): > 8 µg/mL

Molecule: C[C@@H](O)[C@H]1C(=O)N2C(C(=O)O)=C(S[C@@H]3CN[C@H](C(=O)N(C)C)C3)[C@H](C)[C@H]12 [MEROPENEM]
- MIC (Pseudomonas aeruginosa [1]): 8 µg/mL (≈ 20.9 µM)
- MIC (Escherichia coli [4]): 0.064 µg/mL (≈ 0.167 µM)
- MIC (Escherichia coli [2]): 0.032 µg/mL (≈ 0.0834 µM)
- MIC (Escherichia coli [3]): 0.125 µg/mL (≈ 0.326 µM)

Molecule: CCN1CCN(C(=O)N[C@@H](C(=O)N[C@@H]2C(=O)N3[C@@H]2SC(C)(C)[C@@H]3C(=O)O)c2ccccc2)C(=O)C1=O [PIPERACILLIN]
- MIC (Pseudomonas aeruginosa [1]): > 64 µg/mL
- MIC (Escherichia coli [4]): 8 µg/mL (≈ 15.5 µM)
- MIC (Pseudomonas aeruginosa [6]): > 64 µg/mL
- MIC (Escherichia coli [2]): 2 µg/mL (≈ 3.86 µM)
- MIC (Escherichia coli [3]): 4 µg/mL (≈ 7.73 µM)

Molecule: CC(C)(O/N=C(\C(=O)N[C@@H]1C(=O)N2C(C(=O)[O-])=C(C[n+]3ccccc3)CS[C@H]12)c1csc(N)n1)C(=O)O [CEFTAZIDIME]
- MIC (Pseudomonas aeruginosa [1]): > 16 µg/mL
- MIC (Escherichia coli [4]): 16 µg/mL (≈ 29.3 µM)
- MIC (Escherichia coli [2]): 0.125 µg/mL (≈ 0.229 µM)
- MIC (Escherichia coli [3]): 4 µg/mL (≈ 7.32 µM)

Molecule: Cc1nnc(SCC2=C(C(=O)O)N3C(=O)[C@@H](NC(=O)Cn4cnnn4)[C@H]3SC2)s1 [CEFAZOLIN]
- MIC (Pseudomonas aeruginosa [1]): > 16 µg/mL
- MIC (Escherichia coli [4]): 32 µg/mL (≈ 70.4 µM)
- Ratio (Escherichia coli [5]): 4
- MIC (Escherichia coli [2]): 2 µg/mL (≈ 4.4 µM)
- MIC (Escherichia coli [3]): > 256 µg/mL

Molecule: C[C@H]1[C@H](NC(=O)/C(=N\OC(C)(C)C(=O)O)c2csc(N)n2)C(=O)N1S(=O)(=O)O [AZTREONAM]
- MIC (Pseudomonas aeruginosa [1]): 16 µg/mL (≈ 36.7 µM)
- MIC (Escherichia coli [4]): 0.032 µg/mL (≈ 0.0735 µM)
- MIC (Escherichia coli [3]): 0.032 µg/mL (≈ 0.0735 µM)

Molecule: CC1(C)S[C@@H]2[C@H](NC(=O)[C@H](N)c3ccccc3)C(=O)N2[C@H]1C(=O)O [AMPICILLIN]
- MIC (Pseudomonas aeruginosa [1]): > 16 µg/mL
- MIC (Escherichia coli [4]): 64 µg/mL (≈ 183 µM)
- MIC (Escherichia coli [2]): 4 µg/mL (≈ 11.4 µM)
- MIC (Escherichia coli [3]): > 256 µg/mL

Molecule: CO/N=C(\C(=O)N[C@@H]1C(=O)N2C(C(=O)O)=C(COC(C)=O)CS[C@H]12)c1csc(N)n1 [CEFOTAXIME]
- MIC (Escherichia coli [4]): 2 µg/mL (≈ 4.39 µM)
- MIC (Escherichia coli [2]): 0.064 µg/mL (≈ 0.141 µM)
- MIC (Escherichia coli [3]): 4 µg/mL (≈ 8.78 µM)

Molecule: POLYMYXIN B
- MIC (Pseudomonas aeruginosa [1]): 1 µg/mL

Molecule: NCC[C@H](O)C(=O)N[C@@H]1C[C@H](N)[C@@H](O[C@H]2O[C@H](CN)[C@@H](O)[C@H](O)[C@H]2O)[C@H](O)[C@H]1O[C@H]1O[C@H](CO)[C@@H](O)[C@H](N)[C@H]1O [AMIKACIN]
- MIC (Pseudomonas aeruginosa [1]): > 32 µg/mL
